Data taken from publication PMC7377239, “Cardiovascular Effects of Polychlorinated Biphenyls and Their Major Metabolites” (Environmental Health Perspectives, 2020).
Where two headings read alike, the source gives them in different places.

Tests used:
HUVECs = assay: Tube formation (tubulogenesis) assay in HUVECs, 18 h; type: cell-based, human; details: Homo sapiens, HUVEC, 18 h, HUVEC; for activity at 0.1 µM: 0.10 µM
Procedure, shortened: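 HUVECs (passage 1–5) seeded on reduced-growth-factor basement membrane and exposed to compounds overnight at 37°C, 5% CO2, in 2× maintenance medium with 12.5 ng/mL VEGF; 0.5% DMSO vehicle. Calcein AM-stained tube networks imaged and analysed; vehicle-normalized readouts fit to four-parameter logistic, POD set at one SD of vehicle means.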

[1] = test system: iCell endothelial cells (human iPSC-derived ECs); assay: Tube formation (tubulogenesis) assay in iCell endothelial cells, 18 h; type: cell-based; details: Homo sapiens, Endothelial cell, 18 hr; for activity at 0.1 µM: 0.10 µM
Procedure, shortened: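 iCell ECs (passages 1–5) seeded 7,500 cells/well on reduced-growth-factor Geltrex in starvation medium, exposed overnight at 37°C to compounds in triplicate concentration–response (0.5% DMSO vehicle). Calcein AM staining, 4× imaging, angiogenesis image analysis; readouts normalized to vehicle, four-parameter logistic fit, POD at 1 SD of vehicle; 100 μM assigned NOAEL if no response.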

[2] = HUVECs, 0.00 µM = 100.00, read-out: huvec.mtl.18hr
[3] = HUVECs, 0.00 µM = 100.00, read-out: huvec.tlps.18hr
[4] = HUVECs, 0.00 µM = 100.00, read-out: huvec.tta.18hr
[5] = HUVECs, 0.00 µM = 100.00, read-out: huvec.ttl.18hr
[6] = iPSC-EC tube formation, 0.00 µM control = 100.00, read-out: endo.mtl.18hr
[7] = iPSC-EC tube formation, 0.00 µM control = 100.00, read-out: endo.tlps.18hr
[8] = iPSC-EC tube formation, 0.00 µM control = 100.00, read-out: endo.tta.18hr
[9] = iPSC-EC tube formation, 0.00 µM control = 100.00, read-out: endo.ttl.18hr

Q: Which minimal effective concentration (HUVECs; tube formation mtl, read-out: POD huvec.mtl.18hr) does the source give for `O=C1C=CC(=O)C(c2ccc(Cl)cc2)=C1` [4-Cl-BQ, 2-(4-Chlorophenyl)benzo-2,5-quinone] here?
A: Its minimal effective concentration is 1.18 µM.

Q: And the minimal effective concentration (HUVECs; tube formation tlps, read-out: POD huvec.tlps.18hr)?
A: Its minimal effective concentration is 5.25 µM.

Q: What about the minimal effective concentration (HUVECs; tube formation tta, read-out: POD huvec.tta.18hr) of the same molecule?
A: The minimal effective concentration was 0.65 µM.

Q: And the minimal effective concentration (HUVECs; tube formation ttl, read-out: POD huvec.ttl.18hr)?
A: Its minimal effective concentration is 0.25 µM.

Q: And the activity at 0.01 µM (HUVECs; [2])?
A: Its activity at 0.01 µM is 108%.

Q: And the activity at 0.01 µM (HUVECs; [3])?
A: Its activity at 0.01 µM is 136%.

Q: What about the activity at 0.01 µM (HUVECs; [4]) of the same molecule?
A: The activity at 0.01 µM was 110%.

Q: And the activity at 0.01 µM (HUVECs; [5])?
A: The activity at 0.01 µM was 98.6%.

Q: What about the activity at 0.1 µM (HUVECs; [2]) of the same molecule?
A: The activity at 0.1 µM was 104%.

Q: And the activity at 0.1 µM (HUVECs; [3])?
A: Its activity at 0.1 µM is 134%.

Q: And the activity at 0.1 µM (HUVECs; [4])?
A: Its activity at 0.1 µM is 99.2%.

Q: And the activity at 0.1 µM (HUVECs; [5])?
A: The activity at 0.1 µM was 97.1%.

Q: And the activity at 1 µM (HUVECs; [2])?
A: Its activity at 1 µM is 92.4%.

Q: And the activity at 1 µM (HUVECs; [3])?
A: The activity at 1 µM was 139%.

Q: What about the activity at 1 µM (HUVECs; [4]) of the same molecule?
A: The activity at 1 µM was 71%.

Q: What about the activity at 1 µM (HUVECs; [5]) of the same molecule?
A: The activity at 1 µM was 68.3%.

Q: What about the activity at 10 µM (HUVECs; [2]) of the same molecule?
A: The activity at 10 µM was 57.7%.

Q: What about the activity at 10 µM (HUVECs; [3]) of the same molecule?
A: Its activity at 10 µM is 26.2%.

Q: And the activity at 10 µM (HUVECs; [4])?
A: The activity at 10 µM was 36.4%.

Q: What about the activity at 10 µM (HUVECs; [5]) of the same molecule?
A: The activity at 10 µM was 40%.

Q: And the activity at 100 µM (HUVECs; [2])?
A: The activity at 100 µM was 55.2%.

Q: And the activity at 100 µM (HUVECs; [3])?
A: Its activity at 100 µM is 14.3%.

Q: And the activity at 100 µM (HUVECs; [4])?
A: The activity at 100 µM was 8.95%.

Q: What about the activity at 100 µM (HUVECs; [5]) of the same molecule?
A: The activity at 100 µM was 11.6%.

Q: And the minimal effective concentration (HUVECs; HUVECs, top concentration 100.00 µM, read-out: huvec.mtl.18hr POD)?
A: Its minimal effective concentration is 1.18 µM.

Q: And the minimal effective concentration (HUVECs; HUVECs, top concentration 100.00 µM, read-out: huvec.tlps.18hr POD)?
A: Its minimal effective concentration is 5.25 µM.

Q: What about the minimal effective concentration (HUVECs; HUVECs, top concentration 100.00 µM, read-out: huvec.tta.18hr POD) of the same molecule?
A: Its minimal effective concentration is 0.65 µM.

Q: And the minimal effective concentration (HUVECs; HUVECs, top concentration 100.00 µM, read-out: huvec.ttl.18hr POD)?
A: Its minimal effective concentration is 0.25 µM.

Q: And the minimal effective concentration ([1]; endothelial cells (endo), tube formation mtl, read-out: POD endo.mtl.18hr)?
A: The minimal effective concentration was 0.38 µM.

Q: And the minimal effective concentration ([1]; endothelial cells (endo), tube formation tlps, read-out: POD endo.tlps.18hr)?
A: The minimal effective concentration was 1.04 µM.

Q: What about the minimal effective concentration ([1]; endothelial cells (endo), tube formation tta, read-out: POD endo.tta.18hr) of the same molecule?
A: Its minimal effective concentration is 23 µM.

Q: What about the minimal effective concentration ([1]; endothelial cells (endo), tube formation ttl, read-out: POD endo.ttl.18hr) of the same molecule?
A: The minimal effective concentration was 11.8 µM.

Q: And the activity at 0.01 µM [1, 6]?
A: The activity at 0.01 µM was 102%.

Q: And the activity at 0.01 µM [1, 7]?
A: The activity at 0.01 µM was 96%.

Q: What about the activity at 0.01 µM [1, 8] of the same molecule?
A: The activity at 0.01 µM was 156%.

Q: What about the activity at 0.01 µM [1, 9] of the same molecule?
A: The activity at 0.01 µM was 153%.

Q: And the activity at 0.1 µM [1, 6]?
A: The activity at 0.1 µM was 96.3%.

Q: And the activity at 0.1 µM [1, 7]?
A: Its activity at 0.1 µM is 114%.

Q: What about the activity at 0.1 µM [1, 8] of the same molecule?
A: Its activity at 0.1 µM is 135%.

Q: And the activity at 0.1 µM [1, 9]?
A: Its activity at 0.1 µM is 131%.

Q: And the activity at 1 µM [1, 6]?
A: The activity at 1 µM was 77.5%.

Q: What about the activity at 1 µM [1, 7] of the same molecule?
A: Its activity at 1 µM is 70.1%.

Q: And the activity at 1 µM [1, 8]?
A: Its activity at 1 µM is 111%.

Q: What about the activity at 1 µM [1, 9] of the same molecule?
A: The activity at 1 µM was 109%.

Q: And the activity at 10 µM [1, 6]?
A: The activity at 10 µM was 68.9%.

Q: And the activity at 10 µM [1, 7]?
A: Its activity at 10 µM is 45%.

Q: And the activity at 10 µM [1, 8]?
A: Its activity at 10 µM is 99.9%.

Q: What about the activity at 10 µM [1, 9] of the same molecule?
A: The activity at 10 µM was 77.6%.

Q: What about the activity at 100 µM [1, 6] of the same molecule?
A: The activity at 100 µM was 59.2%.

Q: And the activity at 100 µM [1, 7]?
A: Its activity at 100 µM is 9.31%.

Q: And the activity at 100 µM [1, 8]?
A: The activity at 100 µM was 0.43%.

Q: And the activity at 100 µM [1, 9]?
A: The activity at 100 µM was 0.77%.

Q: What about the minimal effective concentration ([1]; iPSC-EC tube formation, top concentration 100.00 µM, read-out: endo.mtl.18hr POD) of the same molecule?
A: Its minimal effective concentration is 0.38 µM.

Q: And the minimal effective concentration ([1]; iPSC-EC tube formation, top concentration 100.00 µM, read-out: endo.tlps.18hr POD)?
A: The minimal effective concentration was 1.04 µM.

Q: What about the minimal effective concentration ([1]; iPSC-EC tube formation, top concentration 100.00 µM, read-out: endo.tta.18hr POD) of the same molecule?
A: The minimal effective concentration was 23 µM.

Q: And the minimal effective concentration ([1]; iPSC-EC tube formation, top concentration 100.00 µM, read-out: endo.ttl.18hr POD)?
A: The minimal effective concentration was 11.8 µM.
